Assay results from patent publication US20160136229A1, “MATERIALS FOR POSITIVE CATHEPSIN B MODULATION AND METHODS OF USE FOR TREATING MILD COGNITIVE IMPAIRMENT (MCI), EARLY DEMENTIA, A-SYNUCLEINOPATHY, TRAUMATIC BRAIN INJURY, CARDIOMYOPATHY, EYE DISEASE AND SKIN DAMAGE” (University of North Carolina at Pembroke, priority 2013, published 2016).

Legend:
PHF-tau = details: cited from earlier work
active cathepsin B = target: T1, active cathepsin B (Homo sapiens, UniProt P07858); assay: Active cathepsin B staining in human neuronal cultures; format: cell-based; details: 10 μM for 3 days, vs control compound Z-FA
T1 construct: endogenous in cells

Aβ peptide = Aβ peptide in hippocampal samples of mutant human APP mice; format: in vivo, mouse; details: PADK-treated transgenic mice; correlated with augmented active CatB in brain
Experimental: FIG. 4. Enhancing lysosome efficiency with the cathepsin B modulator PADK leads to reductions of multiple types of proteinopathy-related accumulation events. […] Age-matched wild-type mice (wt) and 9-10-month mutant human APP mice, a model of early dementia, treated with or without PADK were assessed for the 4-kDa Δβ peptide, the active form of cathepsin B (act CB), and other proteins in hippocampal samples (C). Similar treatment groups used another APP mouse model at 20-22 months of age to measure clearance of APP carboxyterminal fragments APP-αCTF and APP-βCTF (D). Rat hippocampal slice cultures from the untreated control group (con) and slices treated with submicromolar Δβ42 (early tauopathy model) in the absence or presence of PADK (5 μM for 4 days) were assessed for phosphorylated tau (pTau) and other proteins (E). For a model of early α-synucleinopathy, human A53T α-synuclein transgenic mice, at 7 months old, were studied with or without PADK treatment and assessed for human α-synuclein (α-syn) in TX-100 extracts of hippocampus and for other proteins in hippocampal homogenates (F). Plotted data (±SEM) were compared to neighboring vehicle groups by unpaired t-tests: *p=0.02, **p<0.01, ***p<0.001. APPswind and APP-PS1 mice are described in Butler et al., (2011), the entire content of which is hereby incorporated herein by reference. […]

[1] = target: T2, 30-kDa active form of cathepsin B (Rattus norvegicus, UniProt P00787); assay: Immunoblot of active cathepsin B in brain region homogenates of Fischer rats; format: in vivo; details: hippocampal and neocortical homogenates; 27 mg/kg daily, 9 days of injections
T2 construct: assessed by immunoblot to label the 30-kDa active form of cathepsin B; from tissue; host or cells: Fischer rat brain regions (A5); rat brain regions, eye and skin after oral dosing (A18); rat organotypic heart slice cultures (A17)
T2 sequence (P00787 80-333 limits assumed): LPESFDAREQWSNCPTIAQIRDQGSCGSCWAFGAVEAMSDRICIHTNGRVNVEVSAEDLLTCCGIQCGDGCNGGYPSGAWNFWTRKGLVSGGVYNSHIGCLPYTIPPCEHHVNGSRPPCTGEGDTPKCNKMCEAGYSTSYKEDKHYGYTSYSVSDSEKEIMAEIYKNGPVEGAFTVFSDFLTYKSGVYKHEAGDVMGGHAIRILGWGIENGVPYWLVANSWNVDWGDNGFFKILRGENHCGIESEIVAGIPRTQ
Experimental: FIG. 3. Lysosomal modulator PADK dramatically up-regulates active cathepsin B levels in middle-aged Fischer rats, a model of MCI. The female rats were injected daily with vehicle (veh) or 27 mg/kg PADK for 9 days. Brain regions were dissected, homogenates prepared, and equal protein aliquots were assessed by immunoblot to label the 30-kDa active form of cathepsin B as well as actin load controls (A). The hippocampal homogenate samples were also stained for the postsynaptic marker GluR1 to assess for synaptic recovery in correspondence to cathepsin B regulation (A, lower blots).
Brains were removed from the Fischer rats after the behavior studies in order to assess cathepsin B and synaptic marker levels. […] Cathepsin B immunoreactivity was increased 4- to 8-fold in hippocampal as well as neocortical homogenates, while non-lysosomal proteins remained unchanged (gel load controls). In addition to the correspondence with improved memory, there is evidence that the lysosomal modulation corresponds with synaptic recovery, assessing the postsynaptic marker GluR1 in hippocampus (FIG. 3A lower blots, and FIG. 3C). Without wishing to be bound by any scientific theory, the results support the hypothesis that lysosomal enhancement offsets the age-related cascade of microtubule destabilization, transport failure, synaptic decline, and cognitive impairment. […]

cathepsin B = cathepsin B (Mus musculus, UniProt P10605); assay: Cathepsin B species immunoblot in heart tissue of A53T mice; format: in vivo; parameters: heart tissue was obtained to test for changes in cathepsin B; from tissue; host or cells: mouse heart, wild-type and A53T transgenic (A16); details: A53T mice; i.p., 18 mg/kg/day
cathepsin B, sequence (P10605 80-333): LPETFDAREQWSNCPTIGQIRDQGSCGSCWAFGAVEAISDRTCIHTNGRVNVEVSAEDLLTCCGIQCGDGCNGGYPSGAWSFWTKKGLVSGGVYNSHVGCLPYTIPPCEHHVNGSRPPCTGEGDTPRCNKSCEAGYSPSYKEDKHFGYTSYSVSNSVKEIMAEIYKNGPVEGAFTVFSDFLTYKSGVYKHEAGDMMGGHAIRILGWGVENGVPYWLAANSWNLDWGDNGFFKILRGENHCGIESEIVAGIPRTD
Experimental: FIG. 8. PADK also enhances cathepsin B species in the heart. The A53T early α-synucleinopathy mouse model was injected daily with vehicle or PADK (i.p., 18 mg/kg/day) to test for changes in heart tissue. […] Positions of molecular weight standards (kDa) are shown on the left side of the immunoblot. (B) In the lower graph, ratios between CB-30 and CB-105 (mean±SEM) provide a good example of the unique PADK effect on cathepsin B species in the heart. **P<0.01 as compared to vehicle-treated A53T mice.
Ratio measures between the 30-kDa form and the 105-kDa species indicate a unique PADK effect on cathepsin B species in the heart (FIG. 8 bar graph).

[2] = target: T2, 30-kDa active form of cathepsin B; assay: Active cathepsin B immunoblot in brain, eye and skin after oral dosing in rats; format: in vivo
Experimental: FIG. 10. The modulatory compound PADK up-regulates active cathepsin B in brain, eyes, and skin after oral dosing in rats. […] Four different brain regions were dissected and homogenates prepared, and equal protein aliquots were assessed by immunoblot to label the 30-kDa active form of cathepsin B (FC=frontal cortex).

[3] = low-level PADK, hippocampal slice model of protein accumulation
[4] = oral, peanut butter mixture, 15 mg/kg twice a day, 10 days

**Q.** Which “microtubule stability markers, transport function, and synaptic proteins” value (PHF-tau; following PADK-mediated tau clearance) does the source give for `C[C@H](NC(=O)[C@H](Cc1ccccc1)NC(=O)OCc1ccccc1)C(=O)C=[N+]=[N-]` [PADK, N-carbobenzyloxy-L-phenylalanyl-L-alanyl-diazomethylketone] here?
**A.** The value was “recovery”.

**Q.** What about the PHF-tau (PHF-tau; [3]) of the same compound?
**A.** The PHF-tau was “attenuates”.

**Q.** What about the synaptic decline (PHF-tau; [3]) of the same compound?
**A.** Its synaptic decline is “attenuates”.

**Q.** What about the “tau aggregates and tau-related pathology” value (PHF-tau; when CatB activity was increased with PADK) of the same compound?
**A.** The value was “Reduction”.

**Q.** What about the “levels of active cathepsin B” value (active cathepsin B) of the same compound?
**A.** The value was “increased levels of active cathepsin B”.

**Q.** And the Aβ peptide level (Aβ peptide)?
**A.** The Aβ peptide level was “reductions”.

**Q.** What about the “Cathepsin B immunoreactivity increase” value [1] of the same compound?
**A.** Its value is 4- to 8 fold.

**Q.** What about the “active form of cathepsin B (CB-30) in heart” value (cathepsin B) of the same compound?
**A.** Its value is “robust PADK-mediated increase”.

**Q.** What about the “BBB crossing after oral dosing” value ([2]; inferred from enhanced active cathepsin B in brain regions after 10 days of 15 mg PADK/kg/0.5 day) of the same compound?
**A.** The value was “crossing the BBB”.

**Q.** And the “active cathepsin B in brain” value [2, 4]?
**A.** Its value is “up-regulate”.

**Q.** And the “active cathepsin B in eye tissue” value [2, 4]?
**A.** Its value is “significant increases”.

**Q.** And the “active cathepsin B in skin tissue” value [2, 4]?
**A.** The value was “significant increases”.
